A word on the LD50: it is the dose at which mortality reaches 50%.

Here are results for 1 compound from publication PMC10328330 (PLOS ONE, 2023).

A value given as a limit tells only on which side of the number the result lay.

The subject of one series is mice. More on the design: method as in PMID 23791825. To be noted: cited from earlier work.
In the next series the test system is T. gondii (ME49 strain). The series is described as follows: Efficacy in mice chronically infected with T. gondii (brain cysts, qPCR parasite burden). In kind it is in vivo, Toxoplasma gondii. To be noted: C57BL/6 mice chronically infected with ME49. The protocol: Chronic infection in Male C57/BL/6 mice (4 weeks-old) was obtained by intraperitoneal injection of brain tissue cysts (ME49 strain) as previously described. The cysts were obtained by directly macerating the brain tissue of previously chronically infected mice in 5 mL of saline solution. The resulting mixture was then subjected to a counting procedure using a Neubauer chamber under a microscope to determine the concentration of the cysts. To prepare the cysts for injection, they were further diluted in saline solution to achieve the desired concentration of 10 cysts per animal. Subsequently, the mice in the experiment were infected with these freshly obtained brain cysts via intraperitoneal injection. The animals were considered chronically infected 40 days post-infection, according to the protocol described by. […] Additionally, the presence of brain cysts, known to be responsible for the observed symptoms, further confirmed the chronic infection status.
Forty days after infection, chronically infected mice were randomly assigned into experimental groups (n = 4 per group). […] On day 51 post-infection, all animals were euthanized, and their brains were collected for analyses. The brains were used for microscopic counting of cysts, measurement of cysts area, RNA extraction, and quantification. For microscopic counting, 25 μL of macerated organ was utilized, while 200 μL was used for RNA extraction. Cysts area was measured using ImageJ software, available at https://imagej.nih.gov/ij/.
We performed a serial dilution of cultured tachyzoites of T. gondii (RH strain), ranging from 5×10^6 to 7.8×10^4 forms per mL. DNA samples were extracted from each point of the serial dilution (in duplicate samples), and real-time PCR was performed. The resulting data were used to plot the cycle threshold value (CT) against varying amounts of parasites, ultimately generating a standard curve. […]
Each DNA and cDNA samples were analysed by quantitative real-time PCR using the set of primers Rep529, which amplified a T. gondii repetitive DNA fragment. […]
On the technique in general: Quantitative PCR measures a nucleic acid by following its amplification.

For `C=CCNc1nc(NCC=C)nc(N2CCN(C(c3ccc(F)cc3)c3ccc(F)cc3)CC2)n1` [almitrine bismesylate], the LD50 with mice is reported as greater than 200 mg/kg. For the same compound, the “parasite burden in the brains (real-time PCR)” value in the series with T. gondii (ME49 strain) (25 mg/kg/day oral for 10 days, RNA of living parasites by qPCR, vs vehicle control group) was “statistically significant (p < 0.001) reduction”. In the series with T. gondii (ME49 strain) (12.5 and 25 mg/kg/day oral for 10 days from day 40 post-infection, microscopy of brain macerates, ImageJ, vs vehicle), the cysts area result is on record as “significant reduction (p < 0.05)”. Also, the “number of brain cysts” value with T. gondii (ME49 strain) (12.5 and 25 mg/kg/day oral for 10 days from day 40 post-infection, microscopy of brain macerates, vs vehicle) is on record as “significant reduction (p < 0.05)”.
